Patent US9993462B2, “Hydantoin derivative-containing pharmaceutical composition” (Chugai Seiyaku Kabushiki Kaisha, priority 2014, dated 2018)

How the values were obtained:
rat hepatocyte = assay: Metabolic stability using rat hepatocyte; assay type: in vitro ADME
Method: Liver cells were prepared from the liver of rats (SD, female) by a collagenase perfusion method. A compound of the Reference Examples or a Comparative Example was added, and this was incubated at 37° C. for a specified amount of time, followed by addition of a reaction-stopping solution. The concentration of the parent compound at each reaction time was measured using LC/MS/MS, and inherent clearance (μL/10^6 cells/min) was calculated from the slope of the reaction time versus residual rate.
• Cell concentration: 1×10^6 cells/mL • Compound concentration: 1 μM • Medium: Williams' medium E • Reaction time: 0, 15, 30, 60, 120, and 240 minutes • Reaction-stopping solution: acetonitrile/2-propanol (4/6, v/v)

human PTH1R = biological target: T1, human PTH1R (Homo sapiens, UniProt Q03431); assay: In vitro cAMP signal activity via the human PTH1R (HKRK-B7 cells); assay type: cell-based; conditions: human PTH(1-34) at 100 nM = 100%; for EC20: concentration at 20% cAMP signaling activity
T1 construct: expressed in transfected cells; host or cells: HKRK-B7 (LLC-PK1 porcine kidney cells stably expressing human PTH1R)
T1 sequence (Q03431 27-593): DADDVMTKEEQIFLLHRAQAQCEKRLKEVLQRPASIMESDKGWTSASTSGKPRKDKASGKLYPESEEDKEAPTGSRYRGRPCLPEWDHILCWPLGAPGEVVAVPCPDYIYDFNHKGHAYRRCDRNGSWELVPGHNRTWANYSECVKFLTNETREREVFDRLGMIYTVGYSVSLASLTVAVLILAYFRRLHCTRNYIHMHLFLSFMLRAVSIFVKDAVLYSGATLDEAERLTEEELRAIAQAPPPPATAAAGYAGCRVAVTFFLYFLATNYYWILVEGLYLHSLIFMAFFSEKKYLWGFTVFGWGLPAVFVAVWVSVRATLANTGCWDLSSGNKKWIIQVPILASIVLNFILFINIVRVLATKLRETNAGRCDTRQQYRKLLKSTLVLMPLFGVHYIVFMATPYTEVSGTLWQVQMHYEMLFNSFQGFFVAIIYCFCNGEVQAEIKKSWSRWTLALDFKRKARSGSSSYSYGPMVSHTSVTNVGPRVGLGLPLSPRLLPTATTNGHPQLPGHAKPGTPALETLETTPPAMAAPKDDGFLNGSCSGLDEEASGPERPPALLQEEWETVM
Method: Human PTH(1-34) and calcitonin were purchased from Peptide Institute, Inc. (Osaka, Japan), dissolved in 10 mM acetic acid to 1 mM and stored in a −80° C. freezer.
Cells were cultured in Dulbecco's modified Eagle's medium (DMEM) supplemented with 10% fetal bovine serum (Hyclone), 100 units/ml penicillin G and 100 μg/ml streptomycin sulfate (Invitrogen Corp) at 37° C. in a humidified atmosphere containing 5% CO2.
cAMP signal transduction analysis utilized LLC-PK1 cells not expressing the PTH1R, and HKRK-B7 cells, that is, LLC-PK1 cells overexpressing the human PTH1R at 9.5×10^5 receptors/cell (Takasu et al., J. Bone. Miner. Res. 14:11-20, 1999).
HKRK-B7 or LLC-PK1 cells were seeded into a 96-well plate at 1×10^5 cells/well and incubated overnight. On the following day, 50 μl of cAMP assay buffer (DMEM, 2 mM IBMX, 0.2 mg/ml bovine serum albumin, 35 mM Hepes-NaOH, pH 7.4) containing human PTH(1-34) or each compound was added and the plate was placed in a 37° C. incubator. The cells were incubated for 20 minutes. After removing the medium, the cells were washed with 100 μl of cAMP assay buffer once. The plate was placed on dry ice powder to freeze the cells and then removed from the dry ice. The cells were lysed with 40 μl of 50 mM HCl and frozen again on dry ice. The amount of intracellular cAMP produced was measured using a commercially available cAMP EIA kit (Biotrack cAMP EIA system, GE health care).
Analyses were performed using a variable gradient S-shaped dose-response curve equation.

TPTX rat = assay: Calcemic action in the TPTX rat model; assay type: in vivo; conditions: TPTX rats, 30 mg/kg oral; for change of serum Ca concentration from the Pre-value (in words): up to 24 hours after administration
Method: Four-week old female Crl:CD(SD) rats were obtained from Charles River Japan (Atsugi Breeding Center), and were acclimated to standard laboratory conditions of 20-26° C. and 35-75% humidity for one week. The rats were given tap water and were fed ad libitum with standard rodent chow (CE-2) (CLEA Japan, Inc.) containing 1.1% calcium, 1.0% phosphoric acid, and 250 IU/100 g of vitamin D3.
TPTX was performed on five-week old rats. Some of the individuals were subjected to sham operation (Sham). Individuals whose serum Ca concentration was less than 8 mg/dL on four days after the operation were selected for use as TPTX rats. On five days after the operation, the rats were assigned to eight TPTX groups and one Sham group (n=5, each group) based on their body weight and serum Ca concentration measured on four days after the operation. The solvent alone was orally administered to the Sham group and the TPTX-Vehicle group at a volume of 10 mL/kg. Each test article was orally administered individually to each TPTX test article group by dissolving it in a solvent at a dose of 30 mg/10 mL/kg. The solvent composition was 10% dimethylsulfoxide (Wako Pure Chemical Industries, Ltd.), 10% Cremophor EL (Sigma-Aldrich Japan LLC), 20% hydroxypropyl-β-cyclodextrin (Nihon Shokuhin Kako Co., Ltd.), glycine (Wako Pure Chemical Industries, Ltd.); and the pH was adjusted to 10. Immediately before administration of each sample, Pre-blood collection was performed, and blood collection was carried out at 2, 6, 10, and 24 hours after administration to measure the serum Ca concentration. Each blood collection was carried out from the jugular vein under isoflurane inhalation anesthesia.
Serum Ca measurement: Serum obtained by centrifugation from the collected blood was measured by using an automatic analyzer TBA-120FR (Toshiba Medical Systems Corporation).
For statistical analysis of the animal studies, data are shown as mean±standard error (SE). Statistical analysis were performed by unpaired test of the SAS Preclinical Package (Ver. 5.00.010720, SAS Institute Japan, Tokyo, Japan).

SMILES	rat hepatocyte metabolic stability compared to Comparative Examples 1, 2, 3, 5, and 6 (in words) (rat hepatocyte)	EC20 (human PTH1R) [µM]	achievement of the therapeutic target range of serum Ca concentration of 7.6 to 8.8 mg/dL (TPTX rat)	change of serum Ca concentration from the Pre-value (in words) (TPTX rat)	EC50 (human PTH1R; concentration at 50% cAMP signaling activity) [µM]
Cc1cc(N2C(=O)NC(=O)C2(C)C)cc(C)c1CCS(=O)(=O)N1CCC2(CC1)N=C(c1ccc3c(c1)OC(F)(F)O3)NC2=O [Compound 5, 1-(4-(2-((2-(2,2-difluorobenzo[d][1,3]dioxol-5-yl)-4-oxo-1,3,8-triazaspiro[4.5]deca-1-en-8-yl)sulfonyl)ethyl)-3,5-dimethylphenyl)-5,5-dimethylimidazolidine-2,4-dione]	increased	1.7	–	–	–
CC[C@H]1CC[C@H](C2=NC3(CCN(S(=O)(=O)CCc4ccc(N5C(=O)NC(=O)C5C)cc4C)CC3)C(=O)N2)CC1 (stereo partly drawn) [Comparative Example 5, reference compound]	–	3.1	–	–	–
CC[C@H]1CC[C@H](C2=NC3(CCN(S(=O)(=O)CCc4ccc(N5C(=O)NC(=O)C5(C)C)cc4C)CC3)C(=O)N2)CC1 [Comparative Example 6, reference compound]	–	3.6	–	–	–
Cc1cc(N2C(=O)CNC2=O)cc(C)c1CCS(=O)(=O)N1CCC2(CC1)N=C(c1ccc(F)c(C(F)(F)F)c1)NC2=O [Comparative Example 3, reference compound]	–	2.0	–	–	–
Cc1cc(N2C(=O)NC(=O)C23CCN(C)CC3)cc(C)c1CCS(=O)(=O)N1CCC2(CC1)N=C(c1ccc(OC(F)(F)F)cc1)NC2=O [Compound 9, 1-(3,5-dimethyl-4-(2-((4-oxo-2-(4-(trifluoromethoxy)phenyl)-1,3,8-triazaspiro[4.5]deca-1-en-8-yl)sulfonyl)ethyl)phenyl)-8-methyl-1,3,8-triazaspiro[4.5]decane-2,4-dione]	increased	2.6	–	–	–
Cc1cc(N2C(=O)NC(=O)C2(C)C)cc(C)c1CCS(=O)(=O)N1CCC2(CC1)N=C(c1cccc(C(F)(F)F)c1)NC2=O [Compound 6, 1-(3,5-dimethyl-4-(2-((4-oxo-2-(3-(trifluoromethyl)phenyl)-1,3,8-triazaspiro[4.5]deca-1-en-8-yl)sulfonyl)ethyl)phenyl)-5,5-dimethylimidazolidine-2,4-dione]	increased	2.0	achieved the therapeutic target range	large positive changes from the Pre-value	–
Cc1cc(N2C(=O)NC(=O)C2(C)C)cc(C)c1CCS(=O)(=O)N1CCC2(CC1)N=C(c1ccc(F)c(C(F)(F)F)c1)NC2=O [Compound 3, 1-(4-(2-((2-(4-fluoro-3-(trifluoromethyl)phenyl)-4-oxo-1,3,8-triazaspiro[4.5]deca-1-en-8-yl)sulfonyl)ethyl)-3,5-dimethylphenyl)-5,5-dimethylimidazolidine-2,4-dione]	–	1.5	–	–	7.2
Cc1cc(N2C(=O)CNC2=O)cc(C)c1CCS(=O)(=O)N1CCC2(CC1)N=C(c1cccc(OC(F)(F)F)c1)NC2=O [Comparative Example 2, reference compound]	–	3.1	could not be achieved	smaller positive changes from the Pre-value	–
Cc1cc(N2C(=O)NC(=O)C2(C)C)cc(C)c1CCS(=O)(=O)N1CCC2(CC1)N=C(c1ccc(OC(F)(F)F)c(F)c1)NC2=O [Compound 4, 1-(4-(2-((2-(3-fluoro-4-(trifluoromethoxy)phenyl)-4-oxo-1,3,8-triazaspiro[4.5]deca-1-en-8-yl)sulfonyl)ethyl)-3,5-dimethylphenyl)-5,5-dimethylimidazolidine-2,4-dione]	increased	1.6	–	–	–
CCC1CCC(C2=NC3(CCN(S(=O)(=O)CCc4ccc(N5CC(=O)NC5=O)cc4C)CC3)C(=O)N2)CC1 (stereo not drawn) [Comparative Example 4, reference compound]	–	>505	–	–	–
Cc1cc(N2C(=O)NC(=O)C2(C)C)cc(C)c1CCS(=O)(=O)N1CCC2(CC1)N=C(c1ccc(F)c(OC(F)(F)F)c1)NC2=O [Compound 1, 1-(4-(2-((2-(4-fluoro-3-(trifluoromethoxy)phenyl)-4-oxo-1,3,8-triazaspiro[4.5]deca-1-en-8-yl)sulfonyl)ethyl)-3,5-dimethylphenyl)-5,5-dimethylimidazolidine-2,4-dione]	–	1.3	could not be achieved	smaller positive changes from the Pre-value	–
Cc1cc(N2C(=O)NC(=O)C2(C)C)cc(C)c1CCS(=O)(=O)N1CCC2(CC1)N=C(c1cccc(Br)c1)NC2=O [Compound 2, 1-(4-(2-((2-(3-bromophenyl)-4-oxo-1,3,8-triazaspiro[4.5]deca-1-en-8-yl)sulfonyl)ethyl)-3,5-dimethylphenyl)-5,5-dimethylimidazolidine-2,4-dione]	increased	2.4	–	–	–
